The source of these data is patent US20230382868A1 (priority 2022, published 2023).

The target of one assay is hBChE (Homo sapiens, UniProt P06276). Description: biochemical. The assay is classed as biochemical.
Assay [1] in a line: Antioxidant capacity against hydroxyl radicals. To be noted: statement in words, no method given.
The target of a further assay is hAChE (Homo sapiens, UniProt P22303). The experiment in a line: Inhibition of cholinesterases (Ellman method). Format: biochemical. To be noted: n.a. = not active (residual activity at 100 μM ≥50%); three independent experiments; read-out: IC50 ± SEM hAChE. A general note: In Ellman's method for cholinesterases, released thiocholine reacts with DTNB.
Sequence of hAChE (P22303 32-614): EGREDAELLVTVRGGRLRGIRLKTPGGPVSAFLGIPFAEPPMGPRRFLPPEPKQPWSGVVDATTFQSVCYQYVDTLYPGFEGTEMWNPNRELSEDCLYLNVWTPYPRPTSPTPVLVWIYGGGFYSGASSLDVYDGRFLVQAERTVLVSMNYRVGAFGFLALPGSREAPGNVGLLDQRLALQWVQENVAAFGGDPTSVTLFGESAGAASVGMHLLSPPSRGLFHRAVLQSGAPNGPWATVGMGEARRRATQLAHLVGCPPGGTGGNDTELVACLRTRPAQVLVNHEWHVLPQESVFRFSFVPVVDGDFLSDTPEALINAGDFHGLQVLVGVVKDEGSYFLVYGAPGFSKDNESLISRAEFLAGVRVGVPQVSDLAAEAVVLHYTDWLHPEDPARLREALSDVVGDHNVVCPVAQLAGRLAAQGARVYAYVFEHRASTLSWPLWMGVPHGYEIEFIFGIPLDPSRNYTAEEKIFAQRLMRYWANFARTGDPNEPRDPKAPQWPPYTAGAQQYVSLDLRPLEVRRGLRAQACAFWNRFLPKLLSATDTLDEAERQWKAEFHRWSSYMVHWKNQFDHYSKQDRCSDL
A short description of assay [2]: Metal-chelating properties (UV-Vis spectra, Cu2+ titration, Yoe-Jones method). Format: physicochemical. To be noted: 30 μM compound; for interception point of Cu2+ titration (Yoe-Jones method): 0-150 μM Cu2+, Cu2+/compound molar ratio; for change in absorption spectra on addition of Fe2+ and Fe3+ / change in absorption spectra with Ca2+ and Mg2+: equimolar metal ion, HEPES buffer pH 7.4. How it is done:
The chelation properties were determined in HEPES buffer (20 mM, 150 mM NaCl, pH 7.4) using a 96-well microplate reader (Synergy HT; BioTek Instruments, Inc., VT, USA). To determine the chelation of the metal ions by the compounds, 30 μM compound solution was treated with equimolar concentrations of CuCl2, ZnCl2, CoCl2, MgCl2, CaCl2, FeCl2, FeCl3, and AlCl3. To prevent oxidation of Fe^2+, the solution of FeCl2 was prepared in the presence of 1 mM ascorbic acid. The absorption spectra were recorded after 30 min incubation at room temperature. The chelation was detected by the change in the absorption spectra, which was specific for each metal ion. The Cu^2+ binding stoichiometry was resolved by titration of a 30 μM buffered solution of the compounds with additions of CuCl2 buffered stock solution. […] The absorbance differences in the absence and presence of Cu^2+ were plotted against the Cu^2+/compound molar ratio.

Assay [3] is described as follows: DPPH radical-scavenging assay. The conditions noted are these: read-out: free-radical scavenging potency EC50 ± SEM (concentration that scavenged 50% of the DPPH free radicals); DPPH in MeOH, 90 min, room temperature, dark. How it is done: Free-radical scavenging potency was evaluated using the DPPH assay. […] The microtiter plate was incubated at room temperature in the dark for 90 min. The absorbance at 517 nm was then determined with a microplate reader (Synergy HT; BioTek Instruments, Inc., VT, USA). The experiments were performed in triplicate, with subtraction of the blank value (compound without DPPH). The percentages of DPPH free radicals were calculated as DPPH free radical (%)=[(A0−A1)/A0]×100, where A0 is the absorbance of the negative control, and A1 is the absorbance of the test sample. […] Resveratrol and Trolox were used as the positive controls under the same assay conditions.

The test system of a further assay is primary cultured neurons. Description: Neuroprotection of primary cultured neurons after experimental ischemia. Format: cell-based. The conditions noted are these: statement in words, no method given.
In a further assay the target is T1, hMAO-B (Homo sapiens, UniProt P27338).
T1 construct: purchased Sigma Aldrich; host or cells: BTI-TN-5B1-4 insect cells
T1 sequence (P27338 1-520): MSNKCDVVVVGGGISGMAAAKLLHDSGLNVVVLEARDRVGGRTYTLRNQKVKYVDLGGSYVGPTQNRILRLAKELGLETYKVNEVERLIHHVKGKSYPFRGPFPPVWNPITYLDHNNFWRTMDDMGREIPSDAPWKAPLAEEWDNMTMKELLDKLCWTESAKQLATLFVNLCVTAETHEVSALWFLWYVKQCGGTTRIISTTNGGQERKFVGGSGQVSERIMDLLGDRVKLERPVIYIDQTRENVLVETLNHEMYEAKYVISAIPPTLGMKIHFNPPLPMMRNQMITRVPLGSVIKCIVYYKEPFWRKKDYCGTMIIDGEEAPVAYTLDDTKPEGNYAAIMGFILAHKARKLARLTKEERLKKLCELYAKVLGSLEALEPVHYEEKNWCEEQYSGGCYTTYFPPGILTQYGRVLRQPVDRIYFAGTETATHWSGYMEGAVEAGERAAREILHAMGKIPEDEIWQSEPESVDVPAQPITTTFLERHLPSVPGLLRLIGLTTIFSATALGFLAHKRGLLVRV
The assay is classed as biochemical. The conditions noted are these: read-out: IC50 ± SEM hMAO-B.

The mark [4] stands for this setting: HEPES buffer pH 7.4, 30 min, room temperature.

Like-named read-outs stand apart in the source and are kept apart here. Bounds are passed on as bounds.

One may read the IC50 as the concentration that gives 50% inhibition.

Sequence of hBChE (P06276 29-602): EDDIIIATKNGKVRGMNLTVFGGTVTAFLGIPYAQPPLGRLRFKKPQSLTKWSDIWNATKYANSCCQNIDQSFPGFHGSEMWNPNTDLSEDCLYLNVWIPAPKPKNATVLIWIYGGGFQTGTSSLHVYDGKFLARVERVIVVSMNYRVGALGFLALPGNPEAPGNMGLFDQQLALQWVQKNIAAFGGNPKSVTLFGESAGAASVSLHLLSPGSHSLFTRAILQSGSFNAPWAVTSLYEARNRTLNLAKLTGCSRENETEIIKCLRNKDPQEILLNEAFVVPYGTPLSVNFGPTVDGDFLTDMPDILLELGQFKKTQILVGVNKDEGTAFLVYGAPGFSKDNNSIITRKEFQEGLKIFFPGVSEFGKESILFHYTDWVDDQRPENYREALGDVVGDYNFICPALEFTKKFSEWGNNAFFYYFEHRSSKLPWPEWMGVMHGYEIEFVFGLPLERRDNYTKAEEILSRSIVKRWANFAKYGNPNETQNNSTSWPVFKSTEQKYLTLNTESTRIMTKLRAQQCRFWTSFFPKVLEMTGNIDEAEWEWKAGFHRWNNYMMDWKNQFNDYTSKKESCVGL

Regarding `[O-]/[N+](=C\c1ccc2cccc(OCCCN3CCCCC3)c2n1)Cc1ccccc1` [Compound 4, (Z)-N-Benzyl-1-(8-(3-(piperidin-1-yl)propoxy)quinolin-2-yl)methanimine oxide], the IC50 against hBChE came to 76.9 ± 6.3 nM.
On to `C#CCN1CCN(CCCOc2cccc3ccc(/C=[N+](\[O-])Cc4ccccc4)nc23)CC1` [Compound 8, (Z)-N-Benzyl-1-(8-(3-(4-(prop-2-yn-1-yl)piperazin-1-yl)propoxy)quinolin-2-yl)methanimine oxide], for which the IC50 on hBChE was 31 ± 6.4 nM.
With `[O-]/[N+](=C\c1ccc2cccc(O)c2n1)Cc1ccccc1` [Compound 11, (Z)-N-Benzyl-1-(8-hydroxyquinolin-2-yl)methanimine oxide], in assay [1], the “antioxidant capacity against hydroxyl radicals” value is reported as “striking antioxidant capacity”. Also, at hAChE, the IC50 came out at 29 ± 3 nM. Moreover, in assay [2], the “interception point of Cu2+ titration (Yoe-Jones method)” value came out at 0.5; the “change in absorption spectra on addition of Fe2+ and Fe3+” value is reported as “hypochromic change in absorbance spectra”; the “change in absorption spectra with Ca2+ and Mg2+” value is “no major alterations in spectra”. In addition, in assay [3], the EC50 is 126000 ± 100 nM. The “neuroprotection of primary cultured neurons after experimental ischemia” value in the assay on primary cultured neurons was “remarkable activity for neuroprotection”. On hBChE, this molecule showed an IC50 not above 1.1 nM.
For the molecule `CC(C)(C)/[N+]([O-])=C/c1ccc2cccc(O)c2n1` [Compound 10, (Z)-N-tert-butyl-1-(8-hydroxyquinolin-2-yl)methanimine oxide], the IC50 at hMAO-B came out at 16400 ± 1000 nM. Further, in assay [2], the “interception point of Cu2+ titration (Yoe-Jones method)” value worked out at 0.5; the “change in absorption spectra on addition of Fe2+ and Fe3+” value is “hyperchromic shift”; the “change in absorption spectra with Ca2+ and Mg2+” value was “no major changes in absorption spectra”. Further, in assay [2] (setting [4]), the “new absorption maximum with equimolar Al3+ (bathochromic shift)” value was 296 nm, the “new absorption maximum with equimolar Cu2+ (bathochromic shift)” value amounted to 310 nm and the “new absorption maximum with equimolar Zn2+ (bathochromic shift)” value is listed as 309 nm. For the same molecule, the EC50 in assay [3] was found to be 119000 ± 1200 nM. Moreover, the IC50 on hBChE (read-out: IC50 ± SEM hBChE) is 5.1 ± 0.6 nM.
For the molecule `CC(C)(C)/[N+]([O-])=C/c1ccc2cccc(OCCCN3CCCCC3)c2n1` [Compound 3, (Z)-N-tert-Butyl-1-(8-(3-(piperidin-1-yl)propoxy)quinolin-2-yl)methanimine oxide], at hBChE (read-out: IC50 ± SEM hBChE), the IC50 turned out to be 25.4 ± 2.1 nM.
On to `C/[N+]([O-])=C/c1ccc2cccc(O)c2n1` [Compound 9, (Z)-1-(8-Hydroxyquinolin-2-yl)-N-methylmethanimine oxide], for which the IC50 at hMAO-B was 10100 ± 2500 nM.
As to `C#CCN1CCN(CCCOc2cccc3ccc(/C=[N+](\[O-])C(C)(C)C)nc23)CC1` [Compound 7, (Z)-N-tert-Butyl-1-(8-(3-(4-(prop-2-yn-1-yl)piperazin-1-yl)propoxy)quinolin-2-yl)methanimine oxide], the IC50 at hBChE (read-out: IC50 ± SEM hBChE) came to 7.3 ± 1.1 nM.
